Experimental data: patent US6514997B2, “Antipicornaviral compounds and compositions, their pharmaceutical uses, and materials for their synthesis” (Agouron Pharmaceuticals, Inc., priority 1999, dated 2003)
Where two headings read alike, the source gives them in different places.

Experiments:
[1] = Cytotoxicity (CC50) in mock-infected H1-HeLa cells, XTT dye reduction; assay type: cell-based, human; settings: human, H1-HeLa cells, mock-infected
Method in brief: (§1)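 XTT dye reduction (formazan, 450/650 nm) in H1-HeLa cells, mock-infected, gave CC50.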

H1-HeLa cells = assay: as above; assay type: cell-based, human
Method in brief: as §1

[2] = tested on: strains of human rhinovirus (HRV); assay: Antirhinoviral H1-HeLa cell culture assay (XTT cell protection, EC50), other HRV strains; assay type: cell-based, human rhinovirus in H1-HeLa cells; settings: read-out: EC50
Method in brief: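 Protection of H1-HeLa cells from rhinovirus was scored two days post-infection via XTT dye reduction read at 450/650 nm, alongside mock-infected cells for toxicity. CC50/EC50 gives the therapeutic index.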

HRV-14 = assay: Antirhinoviral H1-HeLa cell culture assay (XTT cell protection, EC50), HRV-14; assay type: cell-based, human rhinovirus (HRV) serotype-14 in H1-HeLa cells; settings: Rhinovirus B, HRV14, H1-HeLa
Method in brief: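 XTT dye reduction (450/650 nm) measured survival of H1-HeLa cells two days after HRV-14 infection at m.o.i. 0.13 in the presence of compound, giving EC50. The therapeutic index is CC50 divided by EC50.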

[3] = target: T1, Recombinant rhinovirus 3C protease, serotype 14 (Human rhinovirus 14, UniProt P03303); assay: Inhibition of rhinovirus 3C protease (FRET assay, kobs/[I]), serotype 14; assay type: biochemical; settings: pH 7.6, read-out: kobs/[I] (3C protease inhibition activity)
T1 construct: Recombinant rhinovirus 3C proteases; made in house
T1 sequence (P03303 1538-1719): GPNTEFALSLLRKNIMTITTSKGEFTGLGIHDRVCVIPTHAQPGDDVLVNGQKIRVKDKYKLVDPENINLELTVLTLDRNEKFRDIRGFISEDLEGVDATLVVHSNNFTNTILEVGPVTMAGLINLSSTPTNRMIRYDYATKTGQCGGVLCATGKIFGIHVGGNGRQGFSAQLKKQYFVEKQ
Method in brief: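 kobs/[I] values came from progress curves of reactions started by adding 50-100 nM protease to buffer (50 mM tris pH 7.6, 1 mM EDTA, 2% DMSO) containing compound and ~1 μM quenched DABCYL-EDANS substrate. Rising EDANS fluorescence reported cleavage.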

[4] = Human rhinovirus sp., HRV9, H1-HeLa, HRV-9
[5] = Human rhinovirus sp., HRV10, H1-HeLa, HRV-10
[6] = Human rhinovirus sp., HRV16, H1-HeLa, HRV-16
[7] = Human rhinovirus sp., HRV25, H1-HeLa, HRV-25
[8] = Human rhinovirus sp., HRV39, H1-HeLa, HRV-39

CC[C@@H](C(=O)N[C@H](/C=C/C(=O)OC(C)C)C[C@@H]1CCNC1=O)n1cccc(NC(=O)c2cc(C)on2)c1=O [Compound 52, trans-(2′S,3′″″S,4S)-4-[2′-(3″-{[1′″-(5″″-Methylisoxazol-3″″-yl)methanoyl]amino}-2′″oxo-2′″H-pyridin-1′″-yl)butanoylamino]-5-(2′″″-oxopyrrolidin-3′″″-yl)pent-2-enoic Acid Isopropyl Ester]
CC50 at 2 days ([1]; line of HRV-14): > 10000 nM
CC50 (H1-HeLa cells; line of HRV-9): > 10000 nM
CC50 (H1-HeLa cells; line of HRV-10): > 10000 nM
CC50 (H1-HeLa cells; line of HRV-16): > 10000 nM
CC50 (H1-HeLa cells; line of HRV-25): > 10000 nM
CC50 (H1-HeLa cells; line of HRV-39): > 10000 nM
EC50 [2, 4]: 473 nM
EC50 [2, 5]: 176 nM
EC50 [2, 6]: 280 nM
EC50 [2, 7]: 109 nM
EC50 [2, 8]: 337 nM
EC50 (HRV-14): 181 nM
kinact/KI ([3]; HRV-14): 36000 M⁻¹ s⁻¹

Cc1cc(C(=O)Nc2cccn([C@@H](Cc3ccc(F)c(F)c3)C(=O)N[C@H](/C=C/C(=O)OC3CCCCC3)C[C@@H]3CCNC3=O)c2=O)no1 [Compound 54, trans-(2′S,3″″″S,4S)-4-[3′-(3″,4″-Difluorophenyl)-2′-(3′″-{[1″″-(5′″″-methylisoxazol-3′″″-yl)methanoyl]amino}-2″″-oxo-2″″H-pyridin-1″″-yl)propanoylamino]-5-(2″″″-oxopyrrolidin-3″″″-yl)pent-2-enoic Acid Cyclohexyl Ester]
CC50 at 2 days ([1]; line of HRV-14): > 10000 nM
CC50 (H1-HeLa cells; line of HRV-1A): > 10000 nM
CC50 (H1-HeLa cells; line of HRV-2): > 10000 nM
CC50 (H1-HeLa cells; line of HRV-9): > 10000 nM
CC50 (H1-HeLa cells; line of HRV-10): > 10000 nM
CC50 (H1-HeLa cells; line of HRV-16): > 10000 nM
CC50 (H1-HeLa cells; line of HRV-25): > 10000 nM
CC50 (H1-HeLa cells; line of HRV-39): > 10000 nM
EC50 ([2]; H1-HeLa, HRV-1A): 490 nM
EC50 ([2]; H1-HeLa, HRV-2): 148 nM
EC50 [2, 4]: 517 nM
EC50 [2, 5]: 131 nM
EC50 [2, 6]: 142 nM
EC50 [2, 7]: 215 nM
EC50 [2, 8]: 346 nM
EC50 (HRV-14): 45 nM
kinact/KI ([3]; HRV-14): 244000 M⁻¹ s⁻¹

C#CC[C@@H](C(=O)N[C@H](/C=C/C(=O)OC1CCCCC1)C[C@@H]1CCNC1=O)n1cccc(NC(=O)c2cc(C)on2)c1=O [Compound 55, trans-(2′S,3′″″S,4S)-4-[2′-(3″-{[1′″-(5″″-Methylisoxazol-3″″-yl)methanoyl]amino}-2′″-oxo-2′″H-pyridin-1′″-yl)pent-4″-ynoylamino]-5-(2′″″-oxopyrrolidin-3′″″-yl)pent-2-enoic Acid Cyclohexyl Ester]
CC50 at 2 days ([1]; HRV-14): > 10000 nM
CC50 (H1-HeLa cells; HRV-1A): > 10000 nM
CC50 (H1-HeLa cells; HRV-9): > 10000 nM
CC50 (H1-HeLa cells; HRV-10): > 10000 nM
CC50 (H1-HeLa cells; HRV-25): > 10000 nM
EC50 ([2]; H1-HeLa, HRV-1A): 520 nM
EC50 [2, 4]: 531 nM
EC50 [2, 5]: 195 nM
EC50 [2, 7]: 515 nM
EC50 (HRV-14): 173 nM
kinact/KI ([3]; HRV-14 3C protease): 34000 M⁻¹ s⁻¹

Cc1cc(C(=O)Nc2cccn([C@@H](Cc3ccc(F)c(F)c3)C(=O)N[C@H](/C=C/C(=O)OC3CCCCCC3)C[C@@H]3CCNC3=O)c2=O)no1 [Compound 56, trans-(2′S,3″″″S,4S)-4-[3′-(3″,4″-Difluorophenyl)-2′-(3′″-{[1″″-(5′″″-methylisoxazol-3′″″-yl)methanoyl]aminol}-2″″-oxo-2″″H-pyridin-1″″-yl)propanoylamino]-5-(2″″″-oxopyrrolidin-3″″″-yl)pent-2-enoic Acid Cycloheptyl Ester]
CC50 at 2 days ([1]; HRV-14): > 10000 nM
CC50 (H1-HeLa cells; HRV-1A): > 10000 nM
CC50 (H1-HeLa cells; HRV-9): > 10000 nM
CC50 (H1-HeLa cells; HRV-10): > 10000 nM
CC50 (H1-HeLa cells; HRV-25): > 10000 nM
EC50 ([2]; H1-HeLa, HRV-1A): 504 nM
EC50 [2, 4]: 546 nM
EC50 [2, 5]: 158 nM
EC50 [2, 7]: 400 nM
EC50 (HRV-14): 163 nM
kinact/KI ([3]; HRV-14 3C protease): 99000 M⁻¹ s⁻¹

C#CC[C@@H](C(=O)N[C@H](/C=C/C(=O)OC1CCCCCC1)C[C@@H]1CCNC1=O)n1cccc(NC(=O)c2cc(C)on2)c1=O [Compound 57, trans-(2′S,3′″″S,4S)-4-[2′-(3″-{[1′″-(5″″-Methylisoxazol-3″″-yl)methanoyl]amino}-2′″-oxo-2′″H-pyridin-1′″-yl)pent-4″-ynoylamino]-5-(2′″″-oxopyrrolidin-3′″″-yl)pent-2-enoic Acid Cycloheptyl Ester]
CC50 at 2 days ([1]; HRV-14): > 10000 nM
CC50 (H1-HeLa cells; HRV-1A): > 10000 nM
CC50 (H1-HeLa cells; HRV-9): > 10000 nM
CC50 (H1-HeLa cells; HRV-10): > 10000 nM
CC50 (H1-HeLa cells; HRV-25): > 10000 nM
EC50 ([2]; H1-HeLa, HRV-1A): 1610 nM
EC50 [2, 4]: 1500 nM
EC50 [2, 5]: 482 nM
EC50 [2, 7]: 511 nM
EC50 (HRV-14): 422 nM
kinact/KI ([3]; HRV-14 3C protease): 47000 M⁻¹ s⁻¹
